One data set concerns the target T1, DUSP5 PD(C263S) (Homo sapiens, UniProt Q16690, C263S).
T1 construct: hexa-histidine (N); made in house; host or cells: E. coli BL21(DE3), M9 minimal media with 15NH4Cl
Put plainly: NMR binding assay, 2D 1H-15N HSQC titration. Particulars: pH 6.8; 250 μM RR505 or 500 μM CSD3-2320. The method, then: NMR samples of DUSP5 PD(C263 S) were prepared for 2D 1H-15N HSQC (heteronuclear single quantum coherence) spectral titration studies. The 15N-labeled DUSP5 PD(C263) protein was concentrated using an Amicon Ultra-4 centrifugal device (Millipore) to 600 μM.
NMR samples were prepared with the following conditions for RR505: ±250 μM RR505, 250 μM DUSP5 PD (C263S), 10% D20, 50 mM potassium phosphate, 100 mM KCl, and 2 mM DTT at pH 6.8.
NMR samples were prepared with the following conditions for CSD3-2320: ±500 μM CSD3-2320, 500 μM DUSP5 PD (C263S), 10% D20, 50 mM potassium phosphate, 100 mM KCl, and 2 mM DTT at pH 6.8. NMR experiments were performed on a 500 MHz Varian NMR System using a triple resonance probe with z-axis gradients at 25° C.

For the next data set, the target named is mutant DUSP5 (Homo sapiens, UniProt Q16690, S147P). As to the kind of experiment: Restoration of mutant DUSP5 function.
The nature of data set [1]: Aggregation of compounds (nephelometry; detergent treatment). It is filed as physicochemical. As to the method: Nephelometry is a technique for measuring the relative aggregation of particles in solution, based on the light-scattering properties of molecular aggregates (30). To explore the ability of the chemicals studied herein to form aggregates, which can lead to artifactual inhibition effects, nephelometry was performed. Compounds were tested for aggregation in 96-well plates using a buffer containing 100 mM Tris base, 100 mM sodium chloride, and 5 mM magnesium chloride at pH 7.5. Each compound analyzed in these experiments contained concentrations of compound ranging from 10-100 μM, recorded in quadruplet. Each plate was analyzed at two separate gain values of 52 and 72. Data were collected using a BMG NEPHELOstar Plus, equipped with a 635 nm laser.
To investigate whether Suramin aggregates in solution, a property often investigated with small molecules, we performed detergent treatment assays. […] NTS and Suramin were compared using DUSP5 PD IC50 assays performed with and without detergent. […] We concluded that Suramin forms aggregates in vitro which can lead to non-specific protein inhibition effects. Beyond any adverse implications for repurposing Suramin in this project, the aggregation phenomenon raises more global concerns regarding the current clinical use of Suramin, and may in part explain some of the known toxicity associated with Suramin (32).

For another data set, the target named is CDC25A (Homo sapiens, UniProt P30304). Put plainly: Phosphatase profiling, Biomol Green. Format: biochemical. Particulars: 30 μM, triplicate; positive = activation. The method, then:
(§1) Assays were performed to profile compound CSDDD2320 against 21 phosphatase targets at 1 concentration (30 μM) in triplicate measurements. The aim was to identify whether the compound can affect the activity of the various phosphatase targets selected.
(§2) The PTPN6 (SHP1), PTPRF (LAR), PP1A, PP1B, PP2A, PTPN12(PTP-PEST), PTPN11(SHP2), CDC25A, CDC25B, CDC25C, PP2Ca, and PP2Cg phosphatase activity was determined by performing assays at 37° C. for 15 minutes in a final volume of 50 μl according to the following assay reaction recipe:
(§3) Component 1. 10 μl of diluted active protein phosphatase
(§4) Component 2. 5 μl of 1 mM tyrosine phosphopeptide-2 substrate (for PTPN6, PTPRF, PTPN12, and PTPN11) or threonine phosphopeptide substrate (for PP1A, PP1B, PP2A and PP2Cg) or PI(3,4,5)P3 substrate (for PTEN) or OMFP substrate (for CDC25A, CDC25B and CDC25C)
(§5) Component 3. 25 μl of phosphatase assay buffer
(§6) Component 4. 10 μl of compound (150 μM) or 10% DMSO
(§7) The assay was started by incubating the reaction mixture at 37° C. for 15 minutes. After the 15 minutes incubation period, the assay was terminated by the addition of 100 μl of Biomol Green reagent. The absorbance of the reaction solution was measured in a spectrophotometer at 650 nm. Blank control was set up that included all the assay components except the addition of the tyrosine phosphopeptide-2 substrate or related substrate (replace with equal volume of phosphatase assay buffer). The corrected activity for various phosphatase targets was determined by removing the blank control value.

Another data set concerns the target CDC25B (Homo sapiens, UniProt P30305). Put plainly: Phosphatase profiling, Biomol Green. It is filed as biochemical. To be noted: 30 μM, triplicate. As to the method:
as §1, §2, §3, §4, §5, §6, §7

A further data set concerns the target CDC25C (Homo sapiens, UniProt P30307). As to the kind of experiment: Phosphatase profiling, Biomol Green. It is filed as biochemical. Particulars: 30 μM, triplicate; positive = activation. As to the method:
as §1, §2, §3, §4, §5, §6, §7

Another data set deals with PP1A (Homo sapiens, UniProt P62136). As to the kind of experiment: Phosphatase profiling, Biomol Green. It is filed as biochemical. Particulars: 30 μM, triplicate; negative = inhibition. The method, then:
as §1, §2, §3, §4, §5, §6, §7

The next data set deals with PP1B (Homo sapiens, UniProt P62140). As to the kind of experiment: Phosphatase profiling, Biomol Green. It is filed as biochemical. To be noted: 30 μM, triplicate; negative = inhibition. As to the method:
as §1, §2, §3, §4, §5, §6, §7

The subject of another data set is PP2A. Put plainly: Phosphatase profiling, Biomol Green. It is filed as biochemical. Particulars: 30 μM, triplicate; negative = inhibition. The method, then:
as §1, §2, §3, §4, §5, §6, §7

The target of the next data set is PP2Ca (Homo sapiens, UniProt P35813). Put plainly: Phosphatase profiling, Biomol Green. It is filed as biochemical. Particulars: 30 μM, triplicate; negative = inhibition. The method, then:
as §1, §2, §3, §4, §5, §6, §7

The target in the next data set is PP2Cg (Homo sapiens, UniProt O15355). As to the kind of experiment: Phosphatase profiling, Biomol Green. Format: biochemical. Particulars: 30 μM, triplicate. As to the method: as §1, §2, §3, §4, §5, §6, §7
The next data set addresses PTPN11 (SHP2) (Homo sapiens, UniProt Q06124). As to the kind of experiment: Phosphatase profiling, Biomol Green. It is filed as biochemical. Particulars: 30 μM, triplicate; positive = activation. As to the method: as §1, §2, §3, §4, §5, §6, §7
The target of another data set is PTPN12 (PTP-PEST) (Homo sapiens, UniProt Q05209). Put plainly: Phosphatase profiling, Biomol Green. It is filed as biochemical. Particulars: 30 μM, triplicate; negative = inhibition. The method, then: as §1, §2, §3, §4, §5, §6, §7
The next data set addresses PTPN6 (SHP1) (Homo sapiens, UniProt P29350). As to the kind of experiment: Phosphatase profiling, Biomol Green. Format: biochemical. To be noted: 30 μM, triplicate; negative = inhibition. The method, then:
as §1, §2, §3, §4, §5, §6, §7

The next data set has as its target PTPRF (LAR) (Homo sapiens, UniProt P10586). Put plainly: Phosphatase profiling, Biomol Green. Format: biochemical. To be noted: 30 μM, triplicate. The method, then: as §1, §2, §3, §4, §5, §6, §7

T1 sequence (Q16690 178-319 C263S limits assumed): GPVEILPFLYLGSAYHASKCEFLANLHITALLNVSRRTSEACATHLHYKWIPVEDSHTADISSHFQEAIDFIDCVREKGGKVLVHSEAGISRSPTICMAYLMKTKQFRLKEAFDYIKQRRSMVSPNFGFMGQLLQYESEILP
PP2Ca, sequence (P35813 whole entry): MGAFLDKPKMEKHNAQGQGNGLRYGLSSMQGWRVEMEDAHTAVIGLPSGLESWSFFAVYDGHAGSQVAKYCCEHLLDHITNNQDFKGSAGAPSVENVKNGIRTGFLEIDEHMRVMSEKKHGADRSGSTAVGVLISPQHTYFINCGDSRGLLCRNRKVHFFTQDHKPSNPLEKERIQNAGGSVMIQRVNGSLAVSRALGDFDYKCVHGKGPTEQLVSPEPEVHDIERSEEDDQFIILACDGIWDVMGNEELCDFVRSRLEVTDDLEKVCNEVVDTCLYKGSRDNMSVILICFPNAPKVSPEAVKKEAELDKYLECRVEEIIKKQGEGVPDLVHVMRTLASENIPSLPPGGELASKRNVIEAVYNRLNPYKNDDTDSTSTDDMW
PP1B, sequence (P62140 whole entry, species assumed): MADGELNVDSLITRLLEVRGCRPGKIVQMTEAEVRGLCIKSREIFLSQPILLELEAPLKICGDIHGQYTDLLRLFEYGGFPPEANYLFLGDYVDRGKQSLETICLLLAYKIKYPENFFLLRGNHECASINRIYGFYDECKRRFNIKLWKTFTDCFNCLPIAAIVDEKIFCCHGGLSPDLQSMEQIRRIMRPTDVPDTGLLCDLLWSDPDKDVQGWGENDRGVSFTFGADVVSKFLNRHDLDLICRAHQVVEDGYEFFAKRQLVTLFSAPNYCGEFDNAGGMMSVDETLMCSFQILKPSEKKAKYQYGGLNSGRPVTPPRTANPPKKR
PTPN12 (PTP-PEST), sequence (Q05209 whole entry, species assumed): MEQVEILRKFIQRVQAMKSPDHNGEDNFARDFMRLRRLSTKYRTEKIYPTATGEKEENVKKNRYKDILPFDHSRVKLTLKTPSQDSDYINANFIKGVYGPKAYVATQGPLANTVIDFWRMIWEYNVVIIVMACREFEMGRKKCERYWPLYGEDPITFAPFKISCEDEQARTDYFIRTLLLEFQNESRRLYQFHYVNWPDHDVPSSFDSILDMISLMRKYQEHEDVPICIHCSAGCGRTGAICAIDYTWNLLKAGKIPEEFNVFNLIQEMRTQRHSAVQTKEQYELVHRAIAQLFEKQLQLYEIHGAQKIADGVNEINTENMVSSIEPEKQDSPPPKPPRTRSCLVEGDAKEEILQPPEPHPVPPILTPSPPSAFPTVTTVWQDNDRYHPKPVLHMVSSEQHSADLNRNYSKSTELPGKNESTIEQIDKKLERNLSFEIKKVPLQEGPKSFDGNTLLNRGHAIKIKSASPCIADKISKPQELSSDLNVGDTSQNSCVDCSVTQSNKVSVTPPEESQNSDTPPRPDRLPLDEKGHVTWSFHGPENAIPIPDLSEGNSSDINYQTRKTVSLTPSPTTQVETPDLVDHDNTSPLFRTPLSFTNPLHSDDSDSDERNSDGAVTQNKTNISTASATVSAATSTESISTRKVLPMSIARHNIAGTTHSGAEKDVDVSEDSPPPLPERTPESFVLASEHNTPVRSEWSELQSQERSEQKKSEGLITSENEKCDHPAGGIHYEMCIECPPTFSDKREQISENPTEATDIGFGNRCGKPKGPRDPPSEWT
PTPN6 (SHP1), sequence (P29350 whole entry, species assumed): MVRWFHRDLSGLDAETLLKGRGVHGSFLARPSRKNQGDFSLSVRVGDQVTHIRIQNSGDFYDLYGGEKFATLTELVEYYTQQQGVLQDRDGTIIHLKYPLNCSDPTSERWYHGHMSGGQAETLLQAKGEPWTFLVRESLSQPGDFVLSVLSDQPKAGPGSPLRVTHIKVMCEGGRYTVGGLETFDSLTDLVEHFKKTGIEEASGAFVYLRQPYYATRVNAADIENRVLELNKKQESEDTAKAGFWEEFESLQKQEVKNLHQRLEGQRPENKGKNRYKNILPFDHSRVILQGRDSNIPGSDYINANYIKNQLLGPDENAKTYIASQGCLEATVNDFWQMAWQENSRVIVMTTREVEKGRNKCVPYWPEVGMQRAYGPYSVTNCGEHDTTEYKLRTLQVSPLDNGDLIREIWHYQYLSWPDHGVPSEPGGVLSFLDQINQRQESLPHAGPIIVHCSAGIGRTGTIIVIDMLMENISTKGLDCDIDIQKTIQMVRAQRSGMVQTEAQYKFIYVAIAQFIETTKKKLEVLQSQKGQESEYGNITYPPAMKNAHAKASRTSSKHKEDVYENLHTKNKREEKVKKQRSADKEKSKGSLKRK
PTPRF (LAR), sequence (P10586 30-1907, species assumed): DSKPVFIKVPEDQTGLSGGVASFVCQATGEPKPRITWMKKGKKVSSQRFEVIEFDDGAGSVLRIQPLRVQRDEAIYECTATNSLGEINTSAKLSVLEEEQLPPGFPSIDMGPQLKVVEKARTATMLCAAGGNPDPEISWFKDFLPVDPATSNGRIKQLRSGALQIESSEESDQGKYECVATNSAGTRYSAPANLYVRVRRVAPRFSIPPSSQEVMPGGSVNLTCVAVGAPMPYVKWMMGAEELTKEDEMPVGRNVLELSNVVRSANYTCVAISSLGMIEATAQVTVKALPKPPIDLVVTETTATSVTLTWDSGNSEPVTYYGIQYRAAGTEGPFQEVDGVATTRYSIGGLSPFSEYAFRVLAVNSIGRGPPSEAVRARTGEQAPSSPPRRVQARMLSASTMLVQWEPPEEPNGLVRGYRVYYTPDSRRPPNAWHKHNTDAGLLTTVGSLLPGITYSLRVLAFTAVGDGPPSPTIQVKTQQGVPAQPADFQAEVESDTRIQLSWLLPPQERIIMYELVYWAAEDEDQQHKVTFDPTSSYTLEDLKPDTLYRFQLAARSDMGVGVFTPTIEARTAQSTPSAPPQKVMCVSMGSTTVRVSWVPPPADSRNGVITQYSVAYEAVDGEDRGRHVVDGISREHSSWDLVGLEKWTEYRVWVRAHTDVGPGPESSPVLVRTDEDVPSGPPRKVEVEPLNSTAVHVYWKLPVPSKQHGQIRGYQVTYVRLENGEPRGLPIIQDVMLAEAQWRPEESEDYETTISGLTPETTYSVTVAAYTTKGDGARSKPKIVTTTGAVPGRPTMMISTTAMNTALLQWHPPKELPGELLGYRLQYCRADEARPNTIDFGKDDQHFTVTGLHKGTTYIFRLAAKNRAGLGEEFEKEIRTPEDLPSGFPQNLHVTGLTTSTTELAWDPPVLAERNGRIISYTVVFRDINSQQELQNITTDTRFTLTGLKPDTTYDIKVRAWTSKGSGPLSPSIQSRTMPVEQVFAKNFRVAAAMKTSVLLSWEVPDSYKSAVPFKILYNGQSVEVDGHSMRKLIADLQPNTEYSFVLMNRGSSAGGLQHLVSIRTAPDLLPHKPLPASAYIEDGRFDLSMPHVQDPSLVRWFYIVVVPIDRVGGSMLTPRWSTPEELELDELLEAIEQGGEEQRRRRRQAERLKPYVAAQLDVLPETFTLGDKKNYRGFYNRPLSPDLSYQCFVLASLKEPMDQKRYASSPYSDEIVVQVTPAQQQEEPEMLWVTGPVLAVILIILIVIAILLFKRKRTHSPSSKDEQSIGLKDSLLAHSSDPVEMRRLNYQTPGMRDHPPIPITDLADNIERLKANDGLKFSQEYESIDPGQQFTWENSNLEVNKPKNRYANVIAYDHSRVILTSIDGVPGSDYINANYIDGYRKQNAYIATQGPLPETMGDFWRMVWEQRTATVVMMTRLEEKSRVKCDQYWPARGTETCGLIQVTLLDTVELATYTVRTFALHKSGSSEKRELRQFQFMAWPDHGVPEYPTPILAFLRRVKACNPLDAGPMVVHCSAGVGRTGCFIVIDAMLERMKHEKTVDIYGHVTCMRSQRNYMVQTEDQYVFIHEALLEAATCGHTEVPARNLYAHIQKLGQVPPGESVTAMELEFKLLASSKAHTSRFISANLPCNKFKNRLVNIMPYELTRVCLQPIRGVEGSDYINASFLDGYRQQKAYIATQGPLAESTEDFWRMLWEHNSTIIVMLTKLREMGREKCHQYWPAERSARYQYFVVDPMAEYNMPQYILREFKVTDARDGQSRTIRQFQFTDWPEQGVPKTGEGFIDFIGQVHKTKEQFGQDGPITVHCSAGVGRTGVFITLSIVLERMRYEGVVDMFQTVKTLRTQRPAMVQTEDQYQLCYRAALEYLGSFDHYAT
CDC25A, sequence (P30304 whole entry, species assumed): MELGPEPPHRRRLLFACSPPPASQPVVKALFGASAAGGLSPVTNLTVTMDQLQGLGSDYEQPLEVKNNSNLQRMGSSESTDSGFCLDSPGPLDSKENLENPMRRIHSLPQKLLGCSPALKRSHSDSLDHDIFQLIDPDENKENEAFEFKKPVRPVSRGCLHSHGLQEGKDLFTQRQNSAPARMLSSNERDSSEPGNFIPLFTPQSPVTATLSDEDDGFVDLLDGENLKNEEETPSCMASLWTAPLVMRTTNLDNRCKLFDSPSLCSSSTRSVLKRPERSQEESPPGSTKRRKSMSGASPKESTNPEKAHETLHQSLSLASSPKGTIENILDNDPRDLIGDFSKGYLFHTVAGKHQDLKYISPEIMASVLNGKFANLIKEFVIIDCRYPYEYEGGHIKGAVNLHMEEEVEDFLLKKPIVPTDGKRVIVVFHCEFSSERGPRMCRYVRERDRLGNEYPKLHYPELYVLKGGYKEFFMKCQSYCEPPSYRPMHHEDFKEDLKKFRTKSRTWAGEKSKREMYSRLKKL
PP1A, sequence (P62136 whole entry, species assumed): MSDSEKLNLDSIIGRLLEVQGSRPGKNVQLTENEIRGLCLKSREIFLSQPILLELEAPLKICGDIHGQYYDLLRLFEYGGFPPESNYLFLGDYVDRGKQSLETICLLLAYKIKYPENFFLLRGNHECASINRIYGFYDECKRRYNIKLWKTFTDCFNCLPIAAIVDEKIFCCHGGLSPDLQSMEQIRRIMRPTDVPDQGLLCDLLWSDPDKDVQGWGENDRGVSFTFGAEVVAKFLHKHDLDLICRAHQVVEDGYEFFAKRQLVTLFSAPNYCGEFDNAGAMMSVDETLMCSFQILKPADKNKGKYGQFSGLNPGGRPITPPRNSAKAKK

Turning to `O=S(=O)([O-])c1ccc2[nH]c3c(S(=O)(=O)[O-])cc(S(=O)(=O)[O-])cc3c2c1.[Na+].[Na+].[Na+]` [RR505, Carbazole-1,3,6-trisulfonic acid, Trisodium Salt], at DUSP5 PD(C263S), the “binding by HSQC crosspeak changes” value is listed as “direct binding”. Besides, on mutant DUSP5, the “effect on mutant DUSP5 function” value was “appears to restore mutant DUSP5's function”.
Regarding `O=S(=O)(O)c1cc(O)c2c(S(=O)(=O)O)cccc2c1` [RR527], in data set [1], the aggregation entry is given as “no propensity to aggregate”. For the same compound, the “binding by HSQC crosspeak changes” value on DUSP5 PD(C263S) is “direct binding”. Besides, the “% Change (activity change compared to control)” value is recorded as 7% at CDC25A; 0% at CDC25B; 4% on CDC25C; −3% on PP1A; −1% on PP1B; −3% in the data set with PP2A. In addition, the “% Change (activity change compared to control)” value on PP2Ca is recorded as −7%; at PP2Cg it was 0%; on PTPN11 (SHP2), 4%; at PTPN12 (PTP-PEST), −1%; at PTPN6 (SHP1) it was −5%; at PTPRF (LAR) it was 0%.

These data come from US20180000778A1, “SMALL MOLECULE ANTAGONISTS OF DUSP5 AND METHODS OF USE” (THE MEDICAL COLLEGE OF WISCONSIN, INC., priority 2015, published 2018).
